Source: ChEMBL document CHEMBL1201862, “PubChem BioAssay data set” (2004)
The source made the active and inactive calls. Cut-off read from the data, not from the text of the source: actives have a measured IC50 and inactives only a lower limit.

Molecular target: Envelope glycoprotein gp160 (Human immunodeficiency virus 1, UniProt Q6QLK5)
Experiment: inhibitors of HIV fusion peptide binding, primary screen, biochemical, uHTS, fluorescence dequenching (AID 1986)

Chain of Envelope glycoprotein gp160 (Q6QLK5 whole entry, the tested form may be a part): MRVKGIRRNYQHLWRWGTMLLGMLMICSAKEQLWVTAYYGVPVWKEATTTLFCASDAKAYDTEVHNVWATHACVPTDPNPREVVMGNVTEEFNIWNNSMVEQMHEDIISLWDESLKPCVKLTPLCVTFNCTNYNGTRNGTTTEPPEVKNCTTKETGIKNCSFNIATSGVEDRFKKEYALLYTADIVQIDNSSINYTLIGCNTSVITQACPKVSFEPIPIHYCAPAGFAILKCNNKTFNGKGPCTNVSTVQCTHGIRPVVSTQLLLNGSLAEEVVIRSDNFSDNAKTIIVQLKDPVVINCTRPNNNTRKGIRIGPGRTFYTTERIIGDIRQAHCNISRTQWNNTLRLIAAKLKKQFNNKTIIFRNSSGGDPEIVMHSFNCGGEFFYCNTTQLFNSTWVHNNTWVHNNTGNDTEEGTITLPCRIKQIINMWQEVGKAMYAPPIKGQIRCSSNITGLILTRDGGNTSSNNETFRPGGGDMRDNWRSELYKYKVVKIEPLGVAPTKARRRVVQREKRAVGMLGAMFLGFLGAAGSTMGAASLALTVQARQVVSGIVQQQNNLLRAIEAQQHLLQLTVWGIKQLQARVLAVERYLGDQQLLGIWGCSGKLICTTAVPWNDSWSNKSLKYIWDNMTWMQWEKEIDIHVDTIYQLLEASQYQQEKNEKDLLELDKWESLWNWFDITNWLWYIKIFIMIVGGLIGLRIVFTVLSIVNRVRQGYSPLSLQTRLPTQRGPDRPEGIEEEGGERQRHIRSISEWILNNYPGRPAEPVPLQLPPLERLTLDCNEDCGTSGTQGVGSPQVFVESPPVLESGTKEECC

Row | Structure (SMILES) | IC50
1 | CCOC(=O)C1=C(C)N=c2s/c(=C/c3ccc(OCC(=O)O)cc3)c(=O)n2C1c1ccc(SC)cc1 (configuration not stated) | 12.7 µM (active)
2 | C=CCOC(=O)C1=C(C)N=c2s/c(=C3\C(=O)N(CC(=O)O)c4ccccc43)c(=O)n2C1c1ccc(OC)cc1 (configuration not stated) | 18 µM (active)
